# “Also recorded” adds a separate entry of the source.
# What was measured:
# LD50 mouse (male) = details: in vivo
# Source text: Examples of the compounds represented by the general formula [1] according to this invention and their toxicities are shown below.
# broilers [1] = experiment: Crude fat content in liver of broilers (Test Example 1); assay type: in vivo, "A A Fuji" broilers (chicken)
# Procedure: (§1) To each group consisting of 30 "A A Fuji" broilers (15 male, 15 female), a commercially available early period broiler feed (crumble form, Cp 22%, ME 3,030 kcal/kg) was given from beginning of feeding to 4 week age, and a latter period broiler feed (mash form, Cp 18%, ME 3,030 kcal/kg) was given ad libitum from 4 week age to 10 week age. The test period was from Oct. 10, 1981 through Dec. 20, 1981. Addition of test compounds to the above feeds in predetermined concentrations was conducted from 3 week age through the completion of the test.
# (§2) Five broilers at 6 week age, five broilers at 8 week age and ten broilers at 10 week age were taken out from each group and slaughtered. Immediately after slaughtering, they were cooled in water for about 2 hr and the body weight of each slaughtered broiler was measured and subsequently they were stored at 2° C. for about 20 hr. Then, in order to measure abdominal fat, mesentary fat was removed and fat adhered to from gizzard to proventriculus was collected and weighed as the weight of abdominal fat. This weight was divided by body weight to obtain abdominal fat deposit per 100 g of body weight. Further, liver fat was also collected and weighed. A liver under freeze storage was cut into slices in a total quantity of 2 to 3 g. The slices were placed in a cylindrical filter paper and weighed. Then, these slices were dried for 3 hr in a hot air drier kept at 90° C. and subsequently extracted for 17 hr with ethyl ether in a Soxhlet fat extractor. After drying the extract for 3 hr at 60° C. and weighing the residue, crude fat content in liver was calculated.
# [2] = Feed intake of laying hens (Test Example 2); assay type: in vivo; details: 2,500 ppm in feed
# Source text: As test hens, commercially available laying hens of 480 day age were used. The control group fed with a feed not containing any compound of this invention consisted of 100 laying hens, and each test group fed with a feed containing a compound of this invention consisted of 10 laying hens. The test was repeated twice. The test period was 16 weeks from Nov. 17, 1981 to Mar. 8, 1982. The first 4 weeks from the start was a preliminary observation period, during which each group was controlled so as to give the same egg production rate. As the feed, a commercially available feed for laying hens (Cp 16% or above, ME 2,800 kcal/kg or above) was used. From the 5th week, predetermined quantities of test compounds were uniformly added to this feed and the resulting blended feeds were given to test groups. Feeds and water were given ad libitum. […] Egg production rate was daily recorded for each individual hen and egg weight for each test group. Feed intake quantity was obtained by calculating on every other week a difference between quantity fed and quantity left. For examining egg quality, strength of eggshell and thickness of eggshell were measured for all normal eggs laid during a period of the previous day of measurement to 3 P.M. of the measurement day. Strength of eggshell was measured by a FHK eggshell strength tester model FN-597, and thickness of eggshell by a dial thickness gauge.
# laying hens [3] = experiment: Thickness of eggshell of laying hens (Test Example 2); assay type: in vivo
# Source text: (§3) As test hens, commercially available laying hens of 480 day age were used. The control group fed with a feed not containing any compound of this invention consisted of 100 laying hens, and each test group fed with a feed containing a compound of this invention consisted of 10 laying hens. The test was repeated twice. The test period was 16 weeks from Nov. 17, 1981 to Mar. 8, 1982. The first 4 weeks from the start was a preliminary observation period, during which each group was controlled so as to give the same egg production rate. As the feed, a commercially available feed for laying hens (Cp 16% or above, ME 2,800 kcal/kg or above) was used. From the 5th week, predetermined quantities of test compounds were uniformly added to this feed and the resulting blended feeds were given to test groups. Feeds and water were given ad libitum. Constant lighting was made for 14 hr a day. Egg production rate was daily recorded for each individual hen and egg weight for each test group. Feed intake quantity was obtained by calculating on every other week a difference between quantity fed and quantity left. For examining egg quality, strength of eggshell and thickness of eggshell were measured for all normal eggs laid during a period of the previous day of measurement to 3 P.M. of the measurement day. Strength of eggshell was measured by a FHK eggshell strength tester model FN-597, and thickness of eggshell by a dial thickness gauge.
# [4] = Feed consumption of broilers (Test Example 1); assay type: in vivo, "A A Fuji" broilers (chicken); details: 2,400 ppm in feed
# Procedure: as §1
# Feed consumption was calculated by weighing feeds left at the time of body weight measurement, and therefrom feed conversion ratio was calculated.
# laying hens [5] = experiment: Strength of eggshell of laying hens (Test Example 2); assay type: in vivo
# Source text: as §3
# broilers [6] = experiment: Abdominal fat deposit of broilers (Test Example 1); assay type: in vivo, "A A Fuji" broilers (chicken)
# Procedure: as §1, §2
# [7] = Growth of body weight of broilers (Test Example 1); assay type: in vivo, "A A Fuji" broilers (chicken); details: for Body weight at week age 0: week age 0 (before addition); for Body weight at week age 3: week age 3 (start of addition)
# Procedure: as §1
# (1) Growth of body weight
# […] All broilers were measured and an average body weight was calculated for each group.
smiles,measurement,setting,value
CCOC(=O)C(C(=O)OCC)=C1SC=CS1 [compound 5],LD50,LD50 mouse (male),4900 mg/kg
CC(C)OC(=O)C(C(=O)OC(C)C)=C1SC=CS1 [compound 4],Crude fat content in liver,"broilers [1]; 6w, 200 ppm in feed",2.20%
same,Crude fat content in liver,"broilers [1]; 6w, 400 ppm in feed",2.06%
same,Crude fat content in liver,"broilers [1]; 6w, 800 ppm in feed",2.17%
same,Crude fat content in liver,"broilers [1]; 6w, 2,400 ppm in feed",2.11%
same,Crude fat content in liver,"broilers [1]; 8w, 200 ppm in feed",5.23%
same,Crude fat content in liver,"broilers [1]; 8w, 400 ppm in feed",5.02%
same,Crude fat content in liver,"broilers [1]; 8w, 800 ppm in feed",4.62%
same,Crude fat content in liver,"broilers [1]; 8w, 2,400 ppm in feed",4.04%
same,Crude fat content in liver,"broilers [1]; 10w, 200 ppm in feed",4.47%
same,Crude fat content in liver,"broilers [1]; 10w, 400 ppm in feed",4.29%
same,Crude fat content in liver,"broilers [1]; 10w, 800 ppm in feed",4.25%
same,Crude fat content in liver,"broilers [1]; 10w, 2,400 ppm in feed",3.96%
same,Feed intake (in words),[2],a lower value was seen with significance
same,Eggshell thickness,"laying hens [3]; 509th day, 100 ppm in feed",0.345 mm
same,Eggshell thickness,"laying hens [3]; 509th day, 500 ppm in feed",0.342 mm
same,Eggshell thickness,"laying hens [3]; 509th day, 2,500 ppm in feed",0.336 mm
same,Eggshell thickness,"laying hens [3]; 555th day, 100 ppm in feed",0.343 mm
same,Eggshell thickness,"laying hens [3]; 555th day, 500 ppm in feed",0.350 mm
same,Eggshell thickness,"laying hens [3]; 555th day, 2,500 ppm in feed",0.347 mm
same,Eggshell thickness,"laying hens [3]; 612th day, 100 ppm in feed",0.342 mm
same,Eggshell thickness,"laying hens [3]; 612th day, 500 ppm in feed",0.345 mm
same,Eggshell thickness,"laying hens [3]; 612th day, 2,500 ppm in feed",0.344 mm
same,Feed consumption (in words),[4],significant reduction of feed consumption
same,Eggshell strength,"laying hens [5]; 509th day, 100 ppm in feed",2.47 kg
same,Eggshell strength,"laying hens [5]; 509th day, 500 ppm in feed",2.46 kg
same,Eggshell strength,"laying hens [5]; 509th day, 2,500 ppm in feed",2.44 kg
same,Eggshell strength,"laying hens [5]; 555th day, 100 ppm in feed",2.88 kg
same,Eggshell strength,"laying hens [5]; 555th day, 500 ppm in feed",2.93 kg
same,Eggshell strength,"laying hens [5]; 555th day, 2,500 ppm in feed",2.97 kg
same,Eggshell strength,"laying hens [5]; 612th day, 100 ppm in feed",2.97 kg
same,Eggshell strength,"laying hens [5]; 612th day, 500 ppm in feed",3.02 kg
same,Eggshell strength,"laying hens [5]; 612th day, 2,500 ppm in feed",3.08 kg
same,Abdominal fat deposit,"broilers [6]; 6w, 200 ppm in feed",3.20 g/100 g
same,Abdominal fat deposit,"broilers [6]; 6w, 400 ppm in feed",3.02 g/100 g
same,Abdominal fat deposit,"broilers [6]; 6w, 800 ppm in feed",2.93 g/100 g
same,Abdominal fat deposit,"broilers [6]; 6w, 2,400 ppm in feed",2.92 g/100 g
same,Abdominal fat deposit,"broilers [6]; 8w, 200 ppm in feed",3.55 g/100 g
same,Abdominal fat deposit,"broilers [6]; 8w, 400 ppm in feed",3.18 g/100 g
same,Abdominal fat deposit,"broilers [6]; 8w, 800 ppm in feed",3.22 g/100 g
same,Abdominal fat deposit,"broilers [6]; 8w, 2,400 ppm in feed",3.15 g/100 g
same,Abdominal fat deposit,"broilers [6]; 10w, 200 ppm in feed",3.83 g/100 g
same,Abdominal fat deposit,"broilers [6]; 10w, 400 ppm in feed",3.78 g/100 g
same,Abdominal fat deposit,"broilers [6]; 10w, 800 ppm in feed",3.37 g/100 g
same,Abdominal fat deposit,"broilers [6]; 10w, 2,400 ppm in feed",3.22 g/100 g
same,Growth of body weight (in words),"[7]; broilers, 2,400 ppm in feed",badly affected; also recorded: lower growth of body weight
same,Body weight at week age 0,[7]; 200 ppm in feed from 3 week age,41 g
same,Body weight at week age 0,[7]; 400 ppm in feed from 3 week age,41 g
same,Body weight at week age 0,[7]; 800 ppm in feed from 3 week age,41 g
same,Body weight at week age 0,"[7]; 2,400 ppm in feed from 3 week age",41 g
same,Body weight at week age 3,[7]; 200 ppm in feed,620 g
same,Body weight at week age 3,[7]; 400 ppm in feed,626 g
same,Body weight at week age 3,[7]; 800 ppm in feed,625 g
same,Body weight at week age 3,"[7]; 2,400 ppm in feed",621 g
same,Body weight at week age 4,[7]; 200 ppm in feed,981 g
same,Body weight at week age 4,[7]; 400 ppm in feed,985 g
same,Body weight at week age 4,[7]; 800 ppm in feed,984 g
same,Body weight at week age 4,"[7]; 2,400 ppm in feed",974 g
same,Body weight at week age 5,[7]; 200 ppm in feed,"1,341 g"
same,Body weight at week age 5,[7]; 400 ppm in feed,"1,346 g"
same,Body weight at week age 5,[7]; 800 ppm in feed,"1,330 g"
same,Body weight at week age 5,"[7]; 2,400 ppm in feed","1,316 g"
same,Body weight at week age 6,[7]; 200 ppm in feed,"1,661 g"
same,Body weight at week age 6,[7]; 400 ppm in feed,"1,667 g"
same,Body weight at week age 6,[7]; 800 ppm in feed,"1,662 g"
same,Body weight at week age 6,"[7]; 2,400 ppm in feed","1,640 g"
same,Body weight at week age 7,[7]; 200 ppm in feed,"2,090 g"
same,Body weight at week age 7,[7]; 400 ppm in feed,"2,102 g"
same,Body weight at week age 7,[7]; 800 ppm in feed,"2,065 g"
same,Body weight at week age 7,"[7]; 2,400 ppm in feed","2,003 g"
same,Body weight at week age 8,[7]; 200 ppm in feed,"2,502 g"
same,Body weight at week age 8,[7]; 400 ppm in feed,"2,512 g"
same,Body weight at week age 8,[7]; 800 ppm in feed,"2,496 g"
same,Body weight at week age 8,"[7]; 2,400 ppm in feed","2,388 g"
same,Body weight at week age 9,[7]; 200 ppm in feed,"2,860 g"
same,Body weight at week age 9,[7]; 400 ppm in feed,"2,874 g"
same,Body weight at week age 9,[7]; 800 ppm in feed,"2,871 g"
same,Body weight at week age 9,"[7]; 2,400 ppm in feed","2,796 g"
same,Body weight at week age 10,[7]; 200 ppm in feed,"3,105 g"
same,Body weight at week age 10,[7]; 400 ppm in feed,"3,115 g"
same,Body weight at week age 10,[7]; 800 ppm in feed,"3,098 g"
same,Body weight at week age 10,"[7]; 2,400 ppm in feed","2,984 g"
same,LD50,LD50 mouse (male); unit printed kg/mg,3120 mg/kg
CC(C)OC(=O)C(C(=O)OC(C)C)=C1SC(C(=O)O)S1 (stereo not shown),LD50,LD50 mouse (male),> 5000 mg/kg
CCOC(=O)C(C(=O)OC(C)C)=C1SCS1 [compound 2],LD50,LD50 mouse (male),> 5000 mg/kg
CC(C)OC(=O)C(C(=O)OC(C)C)=C1SCC[S+]1[O-] (stereo not shown) [compound 7],LD50,LD50 mouse (male),> 6000 mg/kg
CC(C)OC(=O)C(C(=O)OC(C)C)=C1SCS1 [compound 1],LD50,LD50 mouse (male),> 5000 mg/kg
CC(C)OC(=O)C(C(=O)OC(C)C)=C1SCC(O)S1 (stereo not shown) [compound 8],LD50,LD50 mouse (male),> 6590 mg/kg

# From patent US4564627A, “Feed composition” (Nihon Nohyaku Co., Ltd., priority 1982, dated 1986)
